Values of other authors in patent publication EP3808777A1, “STABLE LIQUID ANTIBODY FORMULATIONS” (Glenmark Specialty S.A., priority 2019, dated 2021).

| effective buffering range (pH range) | pKa values | SMILES |
| --- | --- | --- |
| 5.5-7.4 |  | N[C@@H](Cc1c[nH]cn1)C(=O)O [L-hisitidine] |
|  | 9.06 | NCCCC[C@H](N)C(=O)O [Lysine] |
|  | 1.82 | N=C(N)NCCC[C@H](N)C(=O)O [Arginine] |
